According to patent US20260015322A1, “DELIVERY OF THERAPEUTIC ALKALOID COMPOUNDS” (priority 2022, published 2026):
Where two headings read alike, the source gives them in different places. Marks after values point to notes of the source that are not given here.

Key:
[1] = Hydrolysis Assay - Condition 1 (SGF); assay type: physicochemical; details: Condition 1: SGF with pepsin pH 1.5, 37° C., 0.5 mM
Description: 50 uL of compound (10 mM) in DMSO was diluted into 950 uL of Simulated Gastric Fluid (SGF) with pepsin (pH 1.5) to a final concentration of 0.5 mM. The hydrolysis kinetics were conducted at 37° C. and measured by LCMS at a certain time interval.
(§1) The corresponding LCMS chromatogram were recorded and the conversions were calculated by integration of each peak.
(§2) • 1) LCMS spectra were obtained using Agilent 1200G1956A or SHIMADZU LCMS-2020. • Standard LCMS conditions were as follows (running time 1.55 minutes): • Acidic condition: Mobile Phase A: 0.0375% TFA in water (v/v). Mobile Phase B: 0.01875% TFA in acetonitrile (v/v); Column: Kinetex EVO C18 30*2.1 mm, 5 μm. • Basic condition: Mobile Phase A: 0.025% NH3·H2O in water (v/v). Mobile Phase B: Acetonitrile; Column: Kinetex EVO C18 2.1×30 mm, 5 μm. • 2) Conversion (%)=peak area 1/(peak area 1+peak area 2)*100%, peak area 1 is the integration of hydrolyzed product, peak area 2 is the integration of starting material.

[2] = Hydrolysis Assay - Condition 2 (DI Water); assay type: physicochemical; details: 25° C., 0.5 mM
Description: 50 uL of compound (10 mM) in DMSO was diluted into 950 uL of DI water to a final concentration of 0.5 mM. The hydrolysis kinetics were conducted at 25° C. and measured by LCMS at a certain time interval.
as §1, §2

[3] = Plasma Stability Assay (Example A2), mouse plasma; assay type: in vitro ADME; details: for Prodrug (%): Mouse Plasma, 37° C., prodrug remaining; for Metabolite (%): mouse
Description: (§3) Each test was carried out in duplicate for each time point; 0 min, 15 min, 30 min, 60 min, 120, 240 min. […]

[4] = Plasma Stability Assay (Example A2), human plasma; assay type: in vitro ADME; details: 37° C., prodrug remaining
Description: as §3

[5] = Plasma Stability Assay (Example A3), rat plasma; assay type: in vitro ADME; details: 10 μM, 37° C., prodrug remaining
Source text: (§4) The data is represented in the table below.

[6] = Plasma Stability Assay (Example A3), human plasma; assay type: in vitro ADME; details: 10 μM, 37° C., prodrug remaining
Source text: as §4

[7] = Metabolic Stability in Human Hepatocytes; assay type: in vitro ADME; details: cryopreserved human hepatocytes, 5×10^5 viable cells/mL, 37° C.
Description: A 2.5 uL aliquot of 100 μM test compound was incubated with 247.5 uL of cryopreserved hepatocytes suspended in serum-free incubation medium at 5×10^5 viable cells/mL. The mixture was incubated at 37° C. and shaken at 500 rpm for the designated time points (0.5, 15, 30, 60, 90, or 120 min). At each time point, 25 μL aliquot of incubation mixture was transferred to 125 μL of cold acetonitrile containing internal standard, followed by centrifugation for 30 min at 3,220 g. 100 μL of supernatant was mixed with 100 μL of distilled water for analysis by LC-MS/MS. Peak areas were determined from extracted ion chromatograms and in vitro half-life (t1/2) was determined from the concentration vs time regression slope, in vitro t1/2=0.693/k. Conversion of the in vitro t1/2 (in min) into the in vitro intrinsic clearance (in vitro CLint, in μL/min/10^6 cells) is done using: in vitro CLint=kV/N.

[8] = assay type: in vivo, male C57BL/6 mice; details: 323 IV 2 mg/kg, mice; for CL: marked NR (not reportable)
Description: Total fifteen male mice were used in this study with n=3 mice/time point with sparse sampling study design. Animals were administered through intravenous route with solution formulation of 323 at 2 mg/kg dose.
(§5) The extraction procedure for plasma/brain samples and the spiked plasma/brain calibration standards were identical (PMSF Stabilized Plasma and Brain used for Preparation of calibration standards): A 20 μL of study sample plasma/brain or spiked plasma/brain calibration standard was added to individual pre-labeled micro-centrifuge tubes followed by 200 μL of internal standard prepared in acetonitrile (Rosuvastatin+Cetrizine, 50 ng/mL) was added except for blank, where 200 μL of acetonitrile was added. Samples were vortexed for 5 minutes. Samples were centrifuged for 10 minutes at a speed of 4000 rpm at 4° C. Following centrifugation, 200 μL of clear supernatant was transferred in 96 well plates and analyzed using LC-MS/MS.
Brain samples were diluted (1-part of tissue: 2-part of buffer) and homogenized. The homogenate was submitted for bioanalysis and the concentrations (ng/mL) received were corrected with dilution factor (3×) and the final reported concentrations were represented in ng/g.
The plasma and brain concentration-time data of 323 and 001 were used for the pharmacokinetic analysis.

[9] = Pharmacokinetics of 358, single IV 2 mg/kg, plasma and brain; assay type: in vivo, male C57BL/6 mice; details: 358 IV 2 mg/kg, mice
Description: Total fifteen male mice were used in this study with n=3 mice/time point with sparse sampling study design. Animals were administered through intravenous route with solution formulation of 358 at 2 mg/kg dose.
The extraction procedure for plasma/brain samples and the spiked plasma/brain calibration standards were identical (PMSF Stabilized Plasma and Brain used for Preparation of calibration standards):
as §5, with “A” for “The extraction procedure for plasma/brain samples and the spiked plasma/brain calibration standards were identical (PMSF Stabilized Plasma and Brain used for Preparation of calibration standards): A”
Note: Brain samples were diluted (1-part of tissue: 2-part of buffer) and homogenized. The homogenate was submitted for bioanalysis and the concentrations (ng/mL) received were corrected with dilution factor (3×) and the final reported concentrations were represented in ng/g.
The plasma and brain concentration-time data of 358 and 001 were used for the pharmacokinetic analysis.

COc1ccc([C@@]23CCC(OP4(=O)OCC(C)(C)CO4)=C[C@@H]2N(C)CC3)cc1OC [Compound 323, 2-[[(3aS,7aS)-3a-(3,4-dimethoxyphenyl)-1-methyl-3,4,5,7a-tetrahydro-2H-indol-6-yl]oxy]-5,5-dimethyl-1,3,2λ5-dioxaphosphinane 2-oxide]
Conversion (%) ([1]; 1 min): 0%
Conversion (%) ([1]; 5 min): 0%
Conversion (%) ([1]; 30 min): 0%
Conversion (%) ([1]; 1 h): 0%
Conversion (%) ([1]; 4 h): 0%
Conversion (%) ([1]; 24 h): 0%
Conversion (%) ([2]; 1 min): 0%
Conversion (%) ([2]; 5 min): 0%
Conversion (%) ([2]; 30 min): 0%
Conversion (%) ([2]; 1 h): 0%
Conversion (%) ([2]; 4 h): 0%
Conversion (%) ([2]; 24 h): 0%
Prodrug (%) ([3]; 0 min): 100.0%
Prodrug (%) ([3]; 15 min): >99%
Prodrug (%) ([3]; 30 min): >99%
Prodrug (%) ([3]; 60 min): 94.1%
Prodrug (%) ([3]; 120 min): 71.9%
Prodrug (%) ([3]; 240 min): 50.3%
Prodrug (%) ([4]; 0 min): 100%
Prodrug (%) ([4]; 15 min): 76.6%
Prodrug (%) ([4]; 30 min): 64.5%
Prodrug (%) ([4]; 60 min): 38.1%
Prodrug (%) ([4]; 120 min): 12.8%
Prodrug (%) ([4]; 240 min): 1.60%
Prodrug (%) ([5]; 0 min): 100.00%
Prodrug (%) ([5]; 10 min): >99%
Prodrug (%) ([5]; 30 min): 95.5%
Prodrug (%) ([5]; 60 min): 82.0%
Prodrug (%) ([5]; 120 min): 58.8%
Prodrug (%) ([5]; 240 min): 34.0%
Prodrug (%) ([6]; 0 min): 100.00%
Prodrug (%) ([6]; 10 min): 86.9%
Prodrug (%) ([6]; 30 min): 70.8%
Prodrug (%) ([6]; 60 min): 52.7%
Prodrug (%) ([6]; 120 min): 27.0%
Prodrug (%) ([6]; 240 min): 9.3%
t1/2 [7]: 327 min
Brain-Kp [8]; 323: 0.07
brain concentrations quantifiable up to [8]; 323: ≤ 0.5 h
Brain concentrations (mean) ([8]; 323, 0.08 h): 22.15 ng/g
Plasma concentrations (mean) ([8]; 323, 0.08 h): 332.15 ng/mL
Brain concentrations (mean) ([8]; 323, 0.25 h): 8.97 ng/g
Plasma concentrations (mean) ([8]; 323, 0.25 h): 91.59 ng/mL
Plasma concentrations (mean) ([8]; 323, 0.5 h): 26.34 ng/mL
Brain concentrations (mean) ([8]; 323, 0.5 h, average of two values): 4.43^d ng/g
Plasma concentrations (mean) ([8]; 323, 1 h): 4.05 ng/mL
Plasma concentrations (mean) ([8]; 323, 2 h, single value, excluded from data analysis): 1.03^c ng/mL
C0 (back extrapolated concentration) ([8]; 323 in Brain): 33.89 ng/mL
T1/2 ([8]; 323 in Brain): 10.8 min
Vss ([8]; 323 in Brain): 61.73 L/kg
CL ([8]; 323 in Brain): NR (4350.55) mL/min/kg
AUClast ([8]; 323 in Plasma): 96.00 ng·h/mL
C0 (back extrapolated concentration) ([8]; 323 in Plasma): 609.01 ng/mL
T1/2 ([8]; 323 in Plasma): 10.2 min
Vss ([8]; 323 in Plasma): 3.25 L/kg
CL ([8]; 323 in Plasma): NR (343.84) mL/min/kg

COc1ccc([C@@]23CCC(OC(=O)OC(C)(C)C)=C[C@@H]2N(C)CC3)cc1OC [Compound 358, [(3aS,7aS)-3a-(3,4-dimethoxyphenyl)-1-methyl-3,4,5,7a-tetrahydro-2H-indol-6-yl]tert-butyl carbonate]
Metabolite (%) ([3]; 0 min, 5 µM): 58.8%
Metabolite (%) ([3]; 15 min, 5 µM): 65.4%
Metabolite (%) ([3]; 30 min, 5 µM): 73.2%
Metabolite (%) ([3]; 60 min): 76.9%
Metabolite (%) ([3]; 120 min): 61.8%
Metabolite (%) ([3]; 240 min): 62.2%
brain concentrations quantifiable up to [9]: ≤ 0.08 h
plasma concentrations quantifiable up to [9]: up to 0.25 h

COc1ccc([C@@]23CCC(OP4(=O)OCCCO4)=C[C@@H]2N(C)CC3)cc1OC [Compound 422, 2-(((3aS,7aS)-3a-(3,4-dimethoxyphenyl)-1-methyl-2,3,3a,4,5,7a-hexahydro-1H-indol-6-yl)oxy)-1,3,2-dioxaphosphinane 2-oxide]
Prodrug (%) ([5]; 0 min): 100.0%
Prodrug (%) ([5]; 10 min): >99%
Prodrug (%) ([5]; 30 min): >99%
Prodrug (%) ([5]; 60 min): >99%
Prodrug (%) ([5]; 120 min): 91.0%
Prodrug (%) ([5]; 240 min): 76.8%
Prodrug (%) ([6]; 0 min): 100.0%
Prodrug (%) ([6]; 10 min): 89.4%
Prodrug (%) ([6]; 30 min): 73.1%
Prodrug (%) ([6]; 60 min): 62.4%
Prodrug (%) ([6]; 120 min): 39.2%
Prodrug (%) ([6]; 240 min): 19.6%
t1/2 [7]: 366 min

COc1ccc([C@@]23CCC(OP4(=O)OC(C)CC(C)O4)=C[C@@H]2N(C)CC3)cc1OC (stereo partly drawn) [Compound 423, 2-(((3aS,7aS)-3a-(3,4-dimethoxyphenyl)-1-methyl-2,3,3a,4,5,7a-hexahydro-1H-indol-6-yl)oxy)-4,6-dimethyl-1,3,2-dioxaphosphinane 2-oxide]
Prodrug (%) ([5]; 0 min): 100.00%
Prodrug (%) ([5]; 10 min): >99%
Prodrug (%) ([5]; 30 min): >99%
Prodrug (%) ([5]; 60 min): 91.05%
Prodrug (%) ([5]; 120 min): 83.29%
Prodrug (%) ([5]; 240 min): 67.32%
Prodrug (%) ([6]; 0 min): 100.00%
Prodrug (%) ([6]; 10 min): >99%
Prodrug (%) ([6]; 30 min): >99%
Prodrug (%) ([6]; 60 min): 98.77%
Prodrug (%) ([6]; 120 min): 97.80%
Prodrug (%) ([6]; 240 min): 89.67%
t1/2 [7]: 57 min
